Entries after “also recorded” stand apart in the source; their conditions may differ.
Legend:
[1] = test system: rat ileal mucosal permeability; test: Intestinal mucosal permeability assay (FD4) after hemorrhagic shock; type: in vivo
Procedure: Intestinal mucosal permeability assay. Animals were allowed access to water but not food for 24 h prior to the experiment in order to decrease the volume of intestinal contents. The rats were instrumented as described above. A midline laparotomy was performed and the small intestine was exteriorized from the duodenojejunal junction to the ileocecal valve. A small incision was made on the antimesenteric aspect of the proximal small intestine and saline solution (1.5 ml) was injected. The bowel was ligated proximally and distally to the incision with 4-0 silk (Look, Reading, Pa.).
The small intestine was compressed gently in aboral direction along its length to displace intestinal contents into the colon. Starting 5 cm from the ileocecal valve, the ileum was partitioned into six contiguous water-tight segments. Each segment was 3 cm long and was bounded proximally and distally by constricting circumferential 4-0 silk sutures. Care was taken to ensure that the vascular supply to intestine was not compromised, and each segment was well-perfused.
Two randomly selected segments in each rat were injected with 0.3 ml of vehicle and served as “no treatment” controls. In order to fill the segments, a small incision was made and the solution was injected using a Teflon catheter (Abbocath 16Ga, Abbot Laboratories).
The remaining four other segments were injected with solutions containing either 4-hydroxy-2,2,6,6-tetramethylpiperidine-N-oxyl (TEMPOL) or one of the Gramicidin S-based compounds. Four different final concentrations of TEMPOL in normal saline were evaluated: 0.1, 1, 5 and 20 mM. The hemigranmicidin-based compounds were dissolved in a mixture of dimethylsulfoxide (DMSO) and normal saline (1:99 v/v) and injected at final concentrations of 0.1, 1, 10 or 100 μM. […]
Fluorescence of FD4 in the solution inside the beaker and within each gut sac was measured using a fluorescence spectrophotometer (LS-50, Perkin-Elmer, Palo Alto, Calif.) at an excitation wavelength of 492 nm and an emission wavelength of 515 nm. […]

[2] = test system: MEF cells from Ercc1−/− mouse embryos; test: Senescence, DNA damage and apoptosis in Ercc1−/− MEF cells under ambient oxygen; type: cell-based; conditions: 500 nM
Procedure: Graphs showing weight over time of treated, untreated and control animals are shown in FIG. 36A-B. To assess the impact of XJB-5-131 at a cellular level, a number of experiments were carried out using mouse embryonic fibroblasts (“MEF”) cells harvested from Ercc1^−/− mouse embryos.

[3] = test system: progeroid Ercc1−/Δ mice; test: Signs of aging in progeroid Ercc1−/Δ mice; type: in vivo, mouse; conditions: 2 mg/kg intraperitoneally three times per week
Procedure: To assess the effectiveness of XJB-5-131 in inhibiting degeneration and/or signs of aging, the compound was administered, over an 18-21 week period, progeroid Ercc1^−/Δ mice, at a dose of 2 mg/kg in sunflower oil carrier (to promote solubility) administered intraperitoneally three times per week (FIG. 32). Sunflower seed oil was administered to twin Ercc1^−/Δ mice according to the same schedule as a control. The treated and control mice were monitored twice a week for weight and symptom/sign development.
FIG. 33 presents a summary table showing the results of the treatment with XJB-5-131 (“XJB” in this figure), relative to control (sunflower seed oil) after treatment from 5 wks of life until death. The numbers indicate the average age at onset of each age-related symptom for mice treated with XJB-5-131 or vehicle only (oil) (n=5 mice per group). […] Of note, all of the signs of neurodegeneration, including dystonia, trembling, ataxia, wasting and urinary incontinence were delayed in the treated animals, providing strong evidence that XJB-5-131 protects neurons against degenerative changes caused by oxidative stress.
To assess the ability of XJB-5-131 to inhibit deterioration of intervertebral discs (an index of degenerative disease of the vertebra), the level of glycosaminoglycan in the discs in treated and control mice were measured, and the results are shown in FIG. 34. The intervertebral discs of treated mice contained approximately 30 percent more glycosaminoglycan relative to control mice, indicating inhibition of disc degeneration.

[4] = test system: caspases 3 and 7; test: Caspases 3 and 7 activity assay in gut mucosa after hemorrhagic shock; type: in vivo, rat; conditions: intraluminal XJB-5-131 solution vs vehicle
Procedure: Caspases 3 and 7 activity assay. Caspases 3 and 7 activity was measured using a commercially available assay kit, Caspase Glo™ 3/7 assay kit (Promega, Madison, Wis.). Briefly, 50 μl of rat gut mucosa homogenate (20 jug protein) was mixed with 50 μl of Caspase-Glo™ reagent and incubated at room temperature for 1 hour. At the end of incubation period, the luminescence of each sample was measured using a plate reading chemiluminometer (ML1000, Dynatech Laboratories, Horsham, Pa.). Activity of caspases 3 and 7 was expressed as luminescence intensity (arbitrary units per mg protein). Protein concentrations were determined using the BioRad assay (Bio-Rad Laboratories, Inc., Hercules, Calif.).
After two hours of HS, samples of ileal mucosa from the gut sacs filled with the vehicle and XJB-5-131 were obtained and compared with ileal mucosa of normal MECs. All samples were assayed with caspase 3 or caspase 7 activity as well as the peroxidation of phosphatidylcholine (“PC”), phosphatidylethanolamine (“PE”), phosphatidylserine (“PS”), and cardiolipin (“CL”), summarized in FIG. 7.

## CC(C)C[C@@H](/C=C/[C@H](Cc1ccccc1)C(=O)N1CCC[C@H]1C(=O)N[C@H](C(=O)N[C@@H](CCCNC(=O)OCc1ccccc1)C(=O)NC1CC(C)(C)N([O])C(C)(C)C1)C(C)C)NC(=O)OC(C)(C)C [XJB-5-131]
[1]; from lowest effective concentrations
  potency relative to TEMPOL: ~1000 fold
[1]; intraluminal
  hemorrhagic shock-induced mucosal hyperpermeability, of the control value: approximately 60%
  lowest effective concentration: 1 µM
[2]
  SA-β galactosidase staining: notably less
  apoptosis: did not reduce the amount of apoptosis
  γH2AX foci: reduce the number of γH2AX foci
[3]
  age at onset of age-related symptoms: significantly delayed
  body weight / tolerability: did not lose weight; also recorded: does not cause weight loss
  glycosaminoglycan in intervertebral discs, more relative to control mice: approximately 30%
  overall aging score: significantly improved
  signs of neurodegeneration (dystonia, trembling, ataxia, wasting, urinary incontinence): delayed
[4]
  caspase 3 and 7 activity after hemorrhagic shock: significantly decreased

Source: US9890192B2, “Targeted nitroxide agents” (University of Pittsburgh—of the Commonwealth System of …, priority 2008, dated 2018)
